Structures can show the parent of a compound that is named as a salt. Blank lines part the entries; values can stand above or below the compound they belong to.
Assays:
[1] = Stability evaluation of liposome formulation under storage conditions (Experimental Example 5); assay type: physicochemical; conditions: for Change of Alvocidib content in liposome formulation: 5° C.; for Alvocidib content % in liposome formulation: liposome formulation stored at 5° C.
Protocol: For Example 1, Example 2, Example 5, Example 6, Example 7, Example 8, Comparative Example 7 and Comparative Example 9, the storage stability of liposome formulation was evaluated by the following method.
For the liposome formulations of Example 1, Example 2, Example 5, Example 6, Example 7, Example 8, Comparative Example 7, and Comparative Example 9, the liposome outer solution was replaced with 10% sucrose solution or 10 mM tartrate buffer solution/10% sucrose solution (pH 4) using Sephadex G-25 column (PD-10, manufactured by GE Healthcare) or a dialysis cassette (Slide-A-Lyzer G2 Dialysis Cassettes 20K MWCO, manufactured by Thermo Scientific) to remove unencapsulated compound. The liposome formulation was filtered through a 0.22 μm membrane filter, and stored at 5° C. After 0 to 18 months, the Alvocidib content in the liposome formulations of Example 1, Example 2, Example 5, Example 6, Example 7, Example 8, Comparative Example 7 and Comparative Example 9 was determined by HPLC.
The HPLC measurement conditions are as follows.

[2] = test system: A673 cells; test: Drug efficacy evaluation test using tumor-bearing mice transplanted with A673 cells (Experimental Example 8); assay type: in vivo, BALB/c mice; conditions: liposome formulation, tail vein, 50 mg/kg twice a week
Protocol: The liposome formulation encapsulating the compound of the present disclosure was treated and evaluated for anti-tumor effect and weight loss.
The liposome formulations were prepared as follows. The liposomes encapsulating the compounds of Example 1, Example 2, Example 5 and Example 6 were prepared in the same manner as in Experimental Example 4, respectively. The liposome outer solution was replaced with 10 mM tartrate buffer solution/10% sucrose solution (pH4.0) using a dialysis cassette (Slide-A-Lyzer G2 Dialysis Cassettes 20K MWCO, manufactured by Thermo Scientific), followed by filtration through a 0.22 μm membrane filter.
A673 cells (ATCC) were intradermally transplanted into 5-week-old BALB/c mice (CAnN.Cg-Foxnlnu/CrlCrlj, female, Charles River, Japan) around the ventral region at 3×10^6 cells/mouse. After confirming the engraftment of A673 cells 6 days after transplantation, they were divided into groups based on tumor diameter and body weight, and liposome formulations encapsulating Example 1, Example 2, Example 5 and Example 6 were administered through the tail vein at dose of 50 mg/kg twice a week, respectively. […] The tumor volume was measured over time from the start of administration, and the tumor volume reduction effect due to compound administration was evaluated. The tumor volume was calculated by the following formula using the short and long diameters of the tumor measured with an electronic caliper (Mitutoyo). For comparison in this test, an empty liposome solution prepared in the same manner as in Experimental Example 1 was used.
(§1) The anti-tumor effect was evaluated by comparing the control group administered with the empty liposome solution and the administration group of the compound of the present disclosure, and calculating T/C by the following formula.

[3] = test system: EMT6 cells; test: Drug efficacy evaluation test using tumor-bearing mice transplanted with EMT6 cells (Experimental Example 7); assay type: in vivo, BALB/c mice; conditions: liposome formulation, tail vein, 25 mg/kg and 50 mg/kg twice a week
Protocol: The liposome formulation encapsulating the compound of the present disclosure was treated and evaluated for anti-tumor effect.
The liposome formulations were prepared as follows. The liposomes encapsulating the compounds of Example 3 and Example 4 were prepared in the same manner as in Experimental Example 4, respectively. The liposome outer solution was replaced with 10 mM tartrate buffer solution/10% sucrose solution (pH 4) using Sephadex G-25 column (PD-10, manufactured by GE Healthcare), followed by concentration by an ultrafiltration filter (AmiconUltra, 100K, 15 mL, manufactured by Merck), and filtration through a 0.22 μm membrane filter.
EMT6 cells (ATCC) were intradermally transplanted into 5-week-old BALB/c mice (BALB/cAnNCrlCrlj, female, Charles River, Japan) around the ventral region at 5×10^5 cells/mouse. […] The tumor volume was measured over time from the start of administration, and the tumor volume reduction effect due to compound administration was evaluated. The tumor volume was calculated by the following formula using the short and long diameters of the tumor measured with an electronic caliper (Mitutoyo). […]
as §1

Compound: CN1CC[C@H](c2c(OC(=O)N(C)CC3CCCCN3)cc(O)c3c(=O)cc(-c4ccccc4Cl)oc23)[C@H](O)C1 (stereo partly drawn) [Example 8, 2-(2-chlorophenyl)-5-hydroxy-8-[(3S,4R)-3-hydroxy-1-methylpiperidin-4-yl]-4-oxo-4H-1-benzopyran-7-yl methyl[(piperidin-2-yl)methyl]carbamate]
Change of Alvocidib content in liposome formulation ([1]; after 18 months): hardly increased

Compound: CCCN(C[C@H]1CCCCN1)C(=O)Oc1cc(O)c2c(=O)cc(-c3ccccc3Cl)oc2c1[C@H]1CCN(C)C[C@H]1O [Example 6, 2-(2-chlorophenyl)-5-hydroxy-8-[(3S,4R)-3-hydroxy-1-methylpiperidin-4-yl]-4-oxo-4H-1-benzopyran-7-yl {[(2R)-piperidin-2-yl]methyl}propylcarbamate]
Effect on tumor volume [2]: inhibited the increase in tumor volume

Compound: CCN(CC1CCCCN1)C(=O)Oc1cc(O)c2c(=O)cc(-c3ccccc3Cl)oc2c1[C@H]1CCN(C)C[C@H]1O (stereo partly drawn) [Example 7, 2-(2-chlorophenyl)-5-hydroxy-8-[(3S,4R)-3-hydroxy-1-methylpiperidin-4-yl]-4-oxo-4H-1-benzopyran-7-yl ethyl[(piperidin-2-yl)methyl]carbamate dihydrochloride]
Change of Alvocidib content in liposome formulation ([1]; after 15 months): hardly increased

Compound: CCN(C[C@@H]1CCCCN1)C(=O)Oc1cc(O)c2c(=O)cc(-c3ccccc3Cl)oc2c1[C@H]1CCN(C)C[C@H]1O [Example 1, 2-(2-chlorophenyl)-5-hydroxy-8-[(3S,4R)-3-hydroxy-1-methylpiperidin-4-yl]-4-oxo-4H-1-benzopyran-7-yl ethyl{[(2S)-piperidin-2-yl]methyl}carbamate ditrifluoroacetate]
Effect on tumor volume [2]: significantly inhibited the increase in tumor volume
Weight loss of 10% or more compared to the start of administration [2]: without weight loss

Compound: CCCN(C[C@@H]1CCCCN1)C(=O)Oc1cc(O)c2c(=O)cc(-c3ccccc3Cl)oc2c1[C@H]1CCN(C)C[C@H]1O [Example 5, 2-(2-chlorophenyl)-5-hydroxy-8-[(3S,4R)-3-hydroxy-1-methylpiperidin-4-yl]-4-oxo-4H-1-benzopyran-7-yl {[(2S)-piperidin-2-yl]methyl}propylcarbamate]
Effect on tumor volume [2]: inhibited the increase in tumor volume

Alvocidib content % in liposome formulation ([1]; 0 month): 0.56%
Alvocidib content % in liposome formulation ([1]; 7 months): 23.2%
Change of Alvocidib content in liposome formulation ([1]; at 6 to 7 months): significant increase
Compound: C[C@H](N)C(=O)O[C@@H]1CN(C)CC[C@@H]1c1c(O)cc(O)c2c(=O)cc(-c3ccccc3Cl)oc12 [Comparative Example 7, reference compound]

Compound: CCN(C[C@H]1CCCCN1)C(=O)Oc1cc(O)c2c(=O)cc(-c3ccccc3Cl)oc2c1[C@H]1CCN(C)C[C@H]1O [Example 2, 2-(2-chlorophenyl)-5-hydroxy-8-[(3S,4R)-3-hydroxy-1-methylpiperidin-4-yl]-4-oxo-4H-1-benzopyran-7-yl ethyl{[(2R)-piperidin-2-yl]methyl}carbamate]
Effect on tumor volume [2]: inhibited the increase in tumor volume
Weight loss of 10% or more compared to the start of administration [2]: without weight loss

Compound: CN1CC[C@H](c2c(OC(=O)N(C)C[C@@H]3CCCCN3)cc(O)c3c(=O)cc(-c4ccccc4Cl)oc23)[C@H](O)C1 [Example 3, 2-(2-chlorophenyl)-5-hydroxy-8-[(3S,4R)-3-hydroxy-1-methylpiperidin-4-yl]-4-oxo-4H-1-benzopyran-7-yl methyl{[(2S)-piperidin-2-yl]methyl}carbamate]
Effect on tumor volume [3]: significantly inhibited the increase in tumor volume

Alvocidib content % in liposome formulation ([1]; 0 month): 1.17%
Alvocidib content % in liposome formulation ([1]; 6 months): 27.2%
Change of Alvocidib content in liposome formulation ([1]; at 6 to 7 months): significant increase
Compound: CN1CC[C@H](c2c(O)cc(O)c3c(=O)cc(-c4ccccc4Cl)oc23)[C@H](OC(=O)[C@@H](N)CO)C1 [Comparative Example 9, reference compound]

Compound: CN1CC[C@H](c2c(OC(=O)N(C)C[C@H]3CCCCN3)cc(O)c3c(=O)cc(-c4ccccc4Cl)oc23)[C@H](O)C1 [Example 4, 2-(2-chlorophenyl)-5-hydroxy-8-[(3S,4R)-3-hydroxy-1-methylpiperidin-4-yl]-4-oxo-4H-1-benzopyran-7-yl methyl{[(2R)-piperidin-2-yl]methyl}carbamate]
Effect on tumor volume [3]: significantly inhibited the increase in tumor volume

— patent publication US12617779B2, “Self degradation-type CDK9 inhibitor prodrug and liposome encapsulating same” (Sumitomo Pharma Co., Ltd., priority 2021, dated 2026)
